In US8609147B2, “Use of deuterium oxide for treatment of herpes virus-based diseases of the skin” (D2 Bioscience Group Ltd., priority 2007, dated 2013):

Test system: HSV-1
Assay: Efficacy in a cell culture test: HSV-1 infected human keratinocyte primary cultures, virus count by transmission electron microscopy
Assay type: cell-based
Conditions: cell culture medium containing 35 wt % D2O; 3 days after infection with HSV-1; 20 keratinocyte cells evaluated
Experimental: After a closed monolayer had formed in the cell culture dish and after desmosomes had developed, human keratinocyte primary cultures produced according to H. M. Reinl et al. (J. Invest. Dermatol. 1995; 105(2):291-5) were incubated with cell culture medium additionally containing 35 wt % D2O (sample) and/or H2O (controls). On the day of incubation, the sample and controls were infected with HSV-1. The infection was accomplished by adding the virus to the cell culture medium (10^7 viruses per cell culture dish in 1 mL cell culture medium). After 3 days (after infection), the sample and control groups were tested for the average number of viral particles per cell. The virus count was performed using a transmission electron microscope according to standard fixation and staining methods (glutaraldehyde and osmium tetroxide). In each case, 20 randomly selected keratinocyte cells from the sample group and the control group were evaluated with regard to the viral particles contained in them.

## [2H]O[2H] [D2O, deuterium oxide]
  average virus count (viral particles per cell): 10±4
